This is an account of results in PubChem BioAssay (NCI).

What all share (assay): inhibition of tumour cell growth, NCI panel, 48 h
Assay [1] deals with SF-268 CNS.
The subject of assay [2] is K-562 leukemia.
Assay [3] concerns NCI-H226 lung.
The test system of assay [4] is ACHN renal.
In assay [5] the test system is U251 CNS.
In assay [6] the test system is SK-MEL-2 melanoma.
In assay [7] the test system is SF-295 CNS.
Assay [8] concerns KM12 colon.
The test system of assay [9] is NCI-H522 lung.
In assay [10] the test system is DU-145 prostate.

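Grown in 96-well plates, cells were treated for 48 hours with each compound at five concentrations. Insufficient inhibition: endpoint recorded as highest concentration tested. GI50 is the concentration that inhibits growth by half. Definition used: TGI = concentration required for complete inhibition of growth.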

As to `CN(C)c1nc(N(C)C)nc(N(C)CN(C)c2ccc(Cl)cc2)n1`, the TGI in [1], in assay [2], in assay [3], in assay [4], in [5] and in assay [6] was more than 100 µM throughout. The TGI in [7], in [8] and in [9] was more than 100 µM each time.
In the case of `CN(c1cc2ncc(=O)[nH]c2cc1NC(N)=NCc1ccc(Cl)cc1)C1CCCCC1`, the GI50 in assay [1] was 6.89 µM; in [2] it was 2.38 µM; in [3] it was 8.1 µM; in assay [4] it was 7.12 µM; in [5], 5.96 µM; in assay [6], 8.83 µM. In addition, the GI50 in [7] was 7.42 µM; in assay [8], 4.52 µM; in assay [9], 7.39 µM; in assay [10], 7.56 µM. The TGI amounted to 14.7 µM in [1]; 9.73 µM in [2]; 18 µM in [3]; 14.2 µM in assay [4]; 13.4 µM in [5]; 18.3 µM in [6]. The TGI came to 14.9 µM in assay [7], 10.9 µM in [8], 16.1 µM in assay [9] and 14.3 µM in assay [10].
With `COc1ccc2c(c1)CCN=C2Cc1cc(OC)c(OC)cc1CCCl`, the TGI in assay [1], in assay [2], in [3], in assay [4], in [5] and in [6] was more than 100 µM in each case. Also, the TGI is more than 100 µM in assay [7], more than 100 µM in [8], 60.1 µM in assay [9] and more than 100 µM in [10].
For `Cc1nc2c(n1C)C(=O)c1nc(CBr)[nH]c(=O)c1C2=O`, the TGI in [1] was more than 100 µM; in [2] it was more than 100 µM; in [4], more than 100 µM; in assay [5], more than 100 µM; in [7], 5.27 µM; in [9], more than 100 µM.
In the case of `O=C(O)c1cc(=O)[nH]c(SCc2ccccc2)n1`, the TGI in assay [1], in [2], in assay [3], in [4], in assay [5] and in assay [6] was more than 100 µM each time. Besides, the TGI in assay [7], in [8], in assay [9] and in assay [10] was more than 100 µM each time.
As for `CC(=O)Oc1c(C)c2c(O)c3c1C1=C(OCOC1=C(C)C3=O)/C(C)=C\C(C)(O)C(O)C(C)C(O)C1C(=O)OC(C(C)C1O)C(C)(O)/C=C/C=C(C)C(=O)N2` (stereo not given), the TGI in assay [1] was more than 100 µM; in [2], more than 100 µM; in assay [3], 75.7 µM; in assay [4], more than 100 µM; in assay [5], more than 100 µM; in assay [6], more than 100 µM. Also, the TGI in assay [7], in [8], in assay [9] and in assay [10] was more than 100 µM throughout.
On to `O=Cc1cc([N+](=O)[O-])no1`, for which the TGI in assay [2] is 38.6 µM; in [3], more than 100 µM; in assay [5] it was more than 100 µM; in assay [6], 57.4 µM; in [7], more than 100 µM; in assay [8], 54.2 µM. Also, in assay [10], the TGI was more than 100 µM.
As for `Cc1ccc(NP(=O)(Oc2ccccc2)N(CCCl)CCCl)cc1` (stereo not given), the TGI in assay [1], in [2], in [3], in assay [4], in assay [5] and in assay [6] was more than 100 µM each time. Also, the TGI in assay [7], in assay [8] and in assay [9] was more than 100 µM each time.
As to `O=C(C=P(c1ccccc1)(c1ccccc1)c1ccccc1)c1cccc(-c2cccc([N+](=O)[O-])c2)c1`, the TGI in assay [1] was more than 100 µM; in assay [2], more than 100 µM; in assay [4], 15.7 µM; in assay [5], more than 100 µM; in assay [7], 35.3 µM; in assay [8], more than 100 µM. The TGI in [9] was 4.4 µM; in assay [10], more than 100 µM.
In the case of `c1ccc(C2CC(c3cccc(Nc4ccncc4)c3)=NN2c2ccccc2)cc1` (stereo not given), the GI50 in assay [1] is 1.79 µM; in [2], 2.02 µM; in assay [3] it was 8.39 µM; in assay [4], 1.69 µM; in assay [5], 1.87 µM; in [6], 1.87 µM. For the same compound, the GI50 in assay [7] was 1.72 µM; in assay [8] it was 1.74 µM; in [9], 1.62 µM; in assay [10], 1.95 µM. Moreover, the TGI amounted to 3.65 µM in assay [1]; 6.76 µM in [2]; 28.7 µM in assay [3]; 3.05 µM in assay [4]; 3.94 µM in [5]; 3.46 µM in [6]. Further, the TGI in assay [7] turned out to be 3.13 µM; in assay [8] it was 3.44 µM; in assay [9] it was 3.28 µM; in assay [10] it was 4.02 µM.
Take `O=S1(=O)C(c2ccccc2)C(N2CCCCC2)C1C1CC2c3ccccc3C1c1ccccc12` (stereo not given): the TGI in assay [1], in [2], in assay [3], in assay [4], in assay [5] and in [6] was more than 100 µM throughout. Further, the TGI in [7], in assay [8], in assay [9] and in [10] was more than 100 µM each time.
Take `CSc1nc(NC2OCC(OC(C)=O)C(OC(C)=O)C2OC(C)=O)c(N=C(C)C(C)=O)c(=O)[nH]1` (stereo not given): the TGI in assay [1], in [2], in assay [4], in assay [5], in assay [6] and in assay [7] was more than 100 µM throughout. The same compound displayed a TGI in assay [8] of more than 100 µM.
For the compound `OC1(c2ccc(Cl)cc2)c2c(ccc3c2OCO3)C2=NCCN21` (stereo not given), the TGI in assay [1] was more than 100 µM; in assay [2], 70.6 µM; in assay [4] it was more than 100 µM; in [5], more than 100 µM; in assay [6], 43.4 µM; in [7], more than 100 µM. In addition, the TGI was 43.9 µM in [8] and more than 100 µM in [10].
For `CCOC(=O)C[C@@H]1C2(C=C[C@@]13CO3)OCC(C)(C)CO2`, the TGI in [1], in assay [2], in assay [3], in assay [5], in [6] and in assay [7] was more than 100 µM each time. The TGI in assay [10] was more than 100 µM.
In the case of `CCN(CC)CCCC(C)Nc1ccnc2cc3ccccc3cc12` (stereo not given), the TGI in assay [1] is 22.1 µM; in [2], more than 100 µM; in assay [3], more than 100 µM; in [4], 21 µM; in assay [5] it was 42.1 µM; in [6], 52.4 µM. The TGI in [7] was 24.6 µM; in assay [8], 33.8 µM; in assay [9], 29 µM; in assay [10], more than 100 µM.
As to `CCCCCCCCCCCCCCCc1ccc(OCC(O)CO)cc1` (stereo not given), the TGI in assay [1] is 82.4 µM; in assay [2] it was more than 100 µM; in [3], 58.5 µM; in [4], more than 100 µM; in [5], 55.9 µM; in assay [6] it was 42.7 µM. Moreover, the values for the TGI in assay [7], in assay [8] and in assay [9] were more than 100 µM, 31.7 µM and 35.4 µM, respectively.
On to `N#Cc1c(NC(=S)Nc2ccc(Cl)cc2)sc2c1CCCC2`, for which the TGI in assay [1], in assay [2], in assay [3], in assay [4], in assay [5] and in assay [6] was more than 100 µM throughout. For the same compound, the TGI in assay [7], in assay [8], in assay [9] and in assay [10] was more than 100 µM each time.
As to `Nc1cc2c(nnn2C2OC(COCc3ccccc3)C(OCc3ccccc3)C2OCc2ccccc2)c(=O)[nH]1` (stereo not given), the TGI in assay [1] is more than 100 µM; in assay [2], 84.6 µM; in assay [3], 53.7 µM; in assay [4], more than 100 µM; in assay [5], more than 100 µM; in assay [6], 28.3 µM. Further, the TGI was more than 100 µM in assay [7], 54.6 µM in [8], more than 100 µM in [9] and more than 100 µM in [10].
For `CC(C)CCC[C@@H](C)[C@H]1CC[C@H]2[C@@H]3CC[C@H]4C[C@H](N)CC[C@]4(C)[C@H]3CC[C@]12C`, the TGI is more than 100 µM in assay [1]; more than 100 µM in [2]; 49.2 µM in [3]; 36.2 µM in assay [4]; 43.8 µM in assay [5]; 45.5 µM in [7]. Further, the results for the TGI in [8], in assay [9] and in assay [10] were more than 100 µM, 99.7 µM and 33.9 µM, respectively.
On to `CS(=O)(=O)OC1CN2CCC1CC2` (stereo not given), for which the TGI in assay [1], in assay [2], in assay [4], in assay [5], in assay [6] and in [7] was more than 100 µM in each case. Moreover, the TGI in [8], in assay [9] and in assay [10] was more than 100 µM throughout.
With `O=C(C[C@H](NC(=O)OCc1ccccc1)C(=O)NC1Cc2ccccc2OC1=O)OCc1ccccc1` (stereo not given in full), the TGI is 49.2 µM in [2]; more than 100 µM in assay [3]; more than 100 µM in assay [5]; more than 100 µM in assay [6]; more than 100 µM in assay [8]; more than 100 µM in assay [9]. In assay [10], this compound had a TGI of more than 100 µM.
